{"source": "patent US20070196294A1", "about": "“Photostable sunscreen compositions comprising dibenzoylmethane compound UV-A filters and s-triazine compounds” (L'OREAL, priority 2006, published 2007)", "assay": "Photostability of formulations on PMMA sheets exposed in a Heraeus Suntest", "type": "physicochemical", "details": "formulations 9 and 10 versus control formulation 8", "method": "Method for Measuring the Photostability:\nFor each formulation, constituents given in % by weight, 3 test samples and 3 control samples were prepared. 2 mg/cm^2 of formulation are deposited on poly(methyl methacrylate) sheets using a spatula.\nThe test sheets are exposed for 38 min to a Heraeus Suntest equipped with a xenon lamp having a UV-A flux of 9.51×10^−3 W/cm^2 and a UV-B flux of 5.43×10^−4 W/cm^2. The control sheets are stored for the same time and at the same temperature (38-40° C.) in darkness.\nAt the end of this time, the screening agents are extracted by immersing each sheet in 50 g of methanol and by subjecting them to ultrasound for 15 min in order to provide for good extraction. The solutions obtained are analyzed by HPLC and UV spectrophotometry.\nFor each formulation tested, the residual 4-(tert-butyl)-4′-methoxydibenzoylmethane level after exposure is given in the ratio of its optical density (OD) in the exposed sample to its unexposed optical density (OD). The positions adopted are the absorption maxima corresponding to butyl-methoxy-dibenzoylmethane: λmax=358 nm.", "data": [{"smiles": "CCCCOC(=O)c1ccc(Nc2nc(Nc3ccc(C=C(C(=O)OCC(C)(C)C)C(=O)OCC(C)(C)C)cc3)nc(Nc3ccc(C=C(C(=O)OCC(C)(C)C)C(=O)OCC(C)(C)C)cc3)n2)cc1", "note": "[Example 1, 2,4-bis(dineopentyl 4′-aminobenzalmalonate)-6-(butyl 4″-aminobenzoate)-s-triazine]", "values": [{"measurement": "Photostability of the dibenzoylmethane in the presence of the compound (result in words)", "value": "improvement in the photostability of the dibenzoylmethane"}]}]}
